According to article PMC10355216, “The C-terminal tail of CSNAP attenuates the CSN complex” (Life Science Alliance, 2023):
Where no end group is shown, it is not given here.

Assays:
HAP1 WT cells = assay: Resazurin-based cell proliferation assay; conditions: HAP1 WT cells stably expressing Cer fusions, 24 h after plating, five independent experiments
Description: Figure 6. Expression of C-CSNAP reduces cellular proliferation rate. (A) Immunoprecipitation analysis using anti-GFP antibody recognizing cerulean (Cer) from lysates of cells expressing the Cer-fused 16AA, 20AA, D42E, and scrambled C-CSNAP in HAP1 WT cells. The COP9 signalosome complex was pulled down from all cells, except when Cer is expressed alone or fused to the scrambled C-CSNAP. Similarly, reciprocal immunoprecipitation by an anti-CSN3 antibody pulled down only the Cer-fused 16AA, 20AA, or D42E C-CSNAP. (B) Stable overexpression of 16AA and 20AA C-CSNAP–Cer in HAP1 WT cells reduces their rate of proliferation. […] One-way ANOVA (P < 0.05) with Dunnett’s multiple comparisons test was used to compare means *P < 0.05, **P < 0.01. […]
HAP1 WT cells stably expressing Cer, 16AA, and 20AA C-CSNAP–Cer were trypsinized and counted. […] Fluorescence intensities at 560/600 nm (ex/em) were measured, and average intensities of four replicates in each plate were calculated, normalized against WT after background subtraction, and normalized values from five independent experiments were compared on a bar graph with SEM. Significance was calculated using repeated measurment one-way ANOVA (P < 0.05) with Dunnett’s multiple comparisons test was used to compare means to Cer as control *P < 0.05, **P < 0.01.

CSN complex = assay: Reciprocal co-immunoprecipitation (anti-CSN3, anti-GFP) of Cer fusions in HAP1 cells; type: cell-based; conditions: peptides fused to Cer expressed in HAP1 cells; anti-CSN3 and anti-GFP pull-downs
Description: To clarify the ability of C-CSNAP peptides to displace CSNAP in cells, we stably expressed four versions of CSNAP, the 16AA and 20AA C-CSNAP, D42E and scrambled peptides fused to the fluorescent protein Cer in HAP1 cells. As control, we used HAP1 cells expressing Cer only. We then performed reciprocal co-immunoprecipitation analyses, using antibodies against CSN3 and GFP recognizing Cer (Figs 6A and S5). […] This is reflected by the higher intensity of the GFP band upon CSN3 pull down, and by the more intense CSN3 band following GFP co-immunoprecipitation.
Figure 6. Expression of C-CSNAP reduces cellular proliferation rate. (A) Immunoprecipitation analysis using anti-GFP antibody recognizing cerulean (Cer) from lysates of cells expressing the Cer-fused 16AA, 20AA, D42E, and scrambled C-CSNAP in HAP1 WT cells. The COP9 signalosome complex was pulled down from all cells, except when Cer is expressed alone or fused to the scrambled C-CSNAP. Similarly, reciprocal immunoprecipitation by an anti-CSN3 antibody pulled down only the Cer-fused 16AA, 20AA, or D42E C-CSNAP. (B) Stable overexpression of 16AA and 20AA C-CSNAP–Cer in HAP1 WT cells reduces their rate of proliferation. […] One-way ANOVA (P < 0.05) with Dunnett’s multiple comparisons test was used to compare means *P < 0.05, **P < 0.01.
Figure S5. […]

recombinant CSN complex = assay: Peptide array screen of C-CSNAP peptides with recombinant CSN (rCSN^WT); type: binding; conditions: for Average fold change: peptide array with rCSN, average of 3 experiments, left and right (n = 6), fold of C-CSNAP (A1); for Average fold change, intensities as fold of C-CSNAP (A1): rCSN^WT on INTAVIS Celluspots array, anti-CSN3 and HRP secondary antibody, average of six replicates (three independent experiments in duplicates);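 as to all read-outs here: densitometric signal of CSN bound to each synthesized peptide spot, with an antibody-only array lacking CSN run to exclude non-specific binding, higher values meaning stronger binding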
Description: To generate an optimized C-CSNAP peptide, we used the peptide array methodology. The array was designed to screen for the optimal peptide length, sequence, and stability (Fig 3A). A recombinant CSN complex was expressed, purified, and screened for binding to the peptide array by using an anti-CSN3 antibody. To rule out non-specific binding of the probing antibody, a control experiment was carried out without the addition of the CSN complex (Fig 3A right panel).
C-CSNAP peptide and its derivatives were synthesized on a microarray. The array was blocked and incubated with or without the COP9 signalosome complex (CSN) and probed using an anti-CSN3 antibody and HRP-conjugated secondary antibody. To assess non-specific binding of the antibodies to the array, anti-CSN3 and anti-GAR–HRP were used without the addition of the CSN. Signal intensity of each spot was measured and normalized to the intensity of the spot of C-CSNAP (A1). Measured values for each spot were averaged from six arrays and plotted with SEM. […] (A) A representative image of the peptide array (left) and the background (right). (B) Elongation of the C-terminal 16 amino acids (green) with one residue at a time based on the full-length sequence. […] (F) Single D-amino acid substitution at various positions.
(§1) Intensity values are normalized to the intensity of the 16AA C-CSNAP peptide (A1) on each array from three independent experiments in duplicates, and averages from the six replicates are calculated with SEM.
(§2) Optimization of C-CSNAP sequence for enhanced binding to recombinant CSN^ΔCSNAP was screened by printing the modified sequences of CSNAP or C-CSNAP (Phe to Trp, Asp to Glu, Ala screen, D-amino acid screen, N-α-methylation, and Aib incorporation on INTAVIS Celluspots array [2 × 384spots]). The array was blocked with 5% skim milk in TBS-0.5% Tween 20 (TBS-T) for 4 h at room temperature, washed three times in TBS-T, and then incubated with 0.5 μM CSN^ΔCSNAP in 5% milk–TBS-T. Bound CSN^ΔCSNAP was visualized by incubating with anti-CSN3 (ab79698) antibody (1:10,000, overnight) and goat-anti-rabbit-HRP secondary antibody (1:10,000, 1 h).

CSN^ΔCSNAP complex = assay: Peptide array screen of C-CSNAP peptides with rCSN^ΔCSNAP; type: binding; conditions: average of 5 experiments;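 also: Array-printed peptides incubated with 0.5 µM CSN^ΔCSNAP, bound complex detected by anti-CSN3 antibody plus HRP-linked secondary, spot intensity expressed relative to the parent reference peptide spot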
Description: Peptide array screen of modified C-CSNAP peptides. C-CSNAP peptide and its derivatives were printed on a microarray. The array was blocked and incubated with or without the CSN∆CSNAP complex and probed using an anti-CSN3 antibody and HRP-conjugated secondary antibody. To assess non-specific binding of the antibodies to the array, anti-CSN3 and anti-GAR-HRP were used without the addition of the COP9 signalosome complex (CSN). Signal intensity of each spot was measured and normalized to the intensity of the spot of C-CSNAP (A1). Measured values for each spot were averaged from six arrays and plotted with standard errors SEM.
as §1, §2

[1] = peptide array, rCSN^ΔCSNAP, left and right spots
[2] = peptide array with rCSN^ΔCSNAP, left and right (n = 10), fold of C-CSNAP (A1)

Question: “20AA C-CSNAP–Cer: 20AA C-CSNAP fused to the fluorescent protein cerulean (Cer), expressed in HAP1 cells (AVHADFFNDFEDLFDDDDIQ; also: fused to Cerulean, end not given here)” was tested. Which “cell proliferation compared with cells expressing only Cer, in words” value (HAP1 WT cells) did it give?
Answer: significant reductions in cell proliferation

Question: What about the “integration into the CSN complex, based on band intensities, in words” value (CSN complex) of the same substance?
Answer: highest ability to integrate into CSN

Question: For EFFNEFEELFEDDEIQ [D42,46,49,52,55E], which Average fold change (recombinant CSN complex) is on record?
Answer: 0.5210 fold

Question: And the Average fold change (CSN^ΔCSNAP complex; [1])?
Answer: 0.9893 fold of C-CSNAP (A1)

Question: How did the Average fold change (recombinant CSN complex) turn out when EFFNEFEELFEDEDIQ [D42,46,49,52,54E] was run?
Answer: 0.5967 fold

Question: What about the Average fold change (CSN^ΔCSNAP complex; [1]) of the same substance?
Answer: 0.9563 fold of C-CSNAP (A1)

Question: Which results are given for EFFNEFEELFEDEEIQ [D42,46,49,52,54,55E]?
Answer: Average fold change (recombinant CSN complex): 0.2605 fold; Average fold change (CSN^ΔCSNAP complex; [1]): 1.1157 fold of C-CSNAP (A1)

Question: Which Average fold change (recombinant CSN complex) does the source give for EFFNEFEELFEEDDIQ [D42,46,49,52,53E] here?
Answer: 0.6954 fold

Question: And the Average fold change (CSN^ΔCSNAP complex; [1])?
Answer: 1.2332 fold of C-CSNAP (A1)

Question: For EFFNEFEELFEEEDIQ [D42,46,49,52,53,55E], which Average fold change (recombinant CSN complex) is on record?
Answer: 0.4075 fold

Question: And the Average fold change (CSN^ΔCSNAP complex; [1])?
Answer: 1.2784 fold of C-CSNAP (A1)

Question: For EFFNEFEELFEEEDIQ [D42,46,49,52,53, 54E], which Average fold change (recombinant CSN complex) is on record?
Answer: 0.5691 fold

Question: And the Average fold change (CSN^ΔCSNAP complex; [1])?
Answer: 0.9285 fold of C-CSNAP (A1)

Question: For “EFFNEFEELFEEEEIQ [D42,46,49,52,53,54,56E]”, which Average fold change (recombinant CSN complex) is on record?
Answer: 0.5923 fold

Question: And the Average fold change (CSN^ΔCSNAP complex; [1])?
Answer: 1.1160 fold of C-CSNAP (A1)

Question: Which results are given for “EGAGPYVDLDEAGGSTGLLMDLAANEKAVHADFFNDFEDLFDDDDIQ [B 8, CSNAP residues 11-57]”?
Answer: Average fold change, intensities as fold of C-CSNAP (A1) (recombinant CSN complex): 0.8775 fold of C-CSNAP (A1); Average fold change (CSN^ΔCSNAP complex; [2]): 0.9764 fold

Question: Which results are given for “EMFPEGAGPYVDLDEAGGSTGLLMDLAANEKAVHADFFNDFEDLFDDDDIQ [Position B12, CSNAP residues 7-57]”?
Answer: Average fold change, intensities as fold of C-CSNAP (A1) (recombinant CSN complex): 0.8904 fold of C-CSNAP (A1); Average fold change (CSN^ΔCSNAP complex; [2]): 1.1057 fold

Question: Which “Average fold change, intensities as fold of C-CSNAP (A1)” value (“Average fold change, intensities” for short) (recombinant CSN complex) does the source give for “GAGPYVDLDEAGGSTGLLMDLAANEKAVHADFFNDFEDLFDDDDIQ [B 7, CSNAP residues 12-57]” here?
Answer: 1.1696 fold of C-CSNAP (A1)

Question: And the Average fold change (CSN^ΔCSNAP complex; [2])?
Answer: 1.0720 fold

Question: “GGSTGLLMDLAANEKAVHADFFNDFEDLFDDDDIQ [Position A20, CSNAP residues 23-57]” was tested. Which “Average fold change, intensities” value (recombinant CSN complex) did it give?
Answer: 0.8793 fold of C-CSNAP (A1)

Question: What about the Average fold change (CSN^ΔCSNAP complex; [2]) of the same substance?
Answer: 1.1737 fold

Question: For “GLLMDLAANEKAVHADFFNDFEDLFDDDDIQ [Position A16, CSNAP residues 27-57]”, which “Average fold change, intensities” value (recombinant CSN complex) is on record?
Answer: 1.0167 fold of C-CSNAP (A1)

Question: And the Average fold change (CSN^ΔCSNAP complex; [2])?
Answer: 1.2168 fold

Question: With “GPYVDLDEAGGSTGLLMDLAANEKAVHADFFNDFEDLFDDDDIQ [B 5, CSNAP residues 14-57]” as the substance, how does the “Average fold change, intensities” value (recombinant CSN complex) read?
Answer: 1.1075 fold of C-CSNAP (A1)

Question: What about the Average fold change (CSN^ΔCSNAP complex; [2]) of the same substance?
Answer: 0.9816 fold

Question: Which results are given for “HADFFNDFEDLFDDDDIQ [A 3, CSNAP residues 40-57]”?
Answer: Average fold change, intensities as fold of C-CSNAP (A1) (recombinant CSN complex): 1.0326 fold of C-CSNAP (A1); Average fold change (CSN^ΔCSNAP complex; [2]): 0.8215 fold

Question: With “KAVHADFFNDFEDLFDDDDIQ [A 6, CSNAP residues 37-57]” as the substance, how does the “Average fold change, intensities” value (recombinant CSN complex) read?
Answer: 1.1025 fold of C-CSNAP (A1)

Question: What about the Average fold change (CSN^ΔCSNAP complex; [2]) of the same substance?
Answer: 0.9179 fold

Question: What does the source list for “KPAVDEMFPEGAGPYVDLDEAGGSTGLLMDLAANEKAVHADFFNDFEDLFDDDDIQ [Position B17, CSNAP residues 2-57]”?
Answer: Average fold change, intensities as fold of C-CSNAP (A1) (recombinant CSN complex): 1.0902 fold of C-CSNAP (A1); Average fold change (CSN^ΔCSNAP complex; [2]): 1.3898 fold

Question: “LAANEKAVHADFFNDFEDLFDDDDIQ [Position A11, CSNAP residues 32-57]” was tested. Which “Average fold change, intensities” value (recombinant CSN complex) did it give?
Answer: 1.1357 fold of C-CSNAP (A1)

Question: And the Average fold change (CSN^ΔCSNAP complex; [2])?
Answer: 1.1791 fold

Question: What does the source list for “LLMDLAANEKAVHADFFNDFEDLFDDDDIQ [Position A15, CSNAP residues 28-57]”?
Answer: Average fold change, intensities as fold of C-CSNAP (A1) (recombinant CSN complex): 0.9771 fold of C-CSNAP (A1); Average fold change (CSN^ΔCSNAP complex; [2]): 1.2034 fold

Question: How did the “Average fold change, intensities” value (recombinant CSN complex) turn out when “LMDLAANEKAVHADFFNDFEDLFDDDDIQ [Position A14, CSNAP residues 29-57]” was run?
Answer: 0.9262 fold of C-CSNAP (A1)

Question: What about the Average fold change (CSN^ΔCSNAP complex; [2]) of the same substance?
Answer: 1.0726 fold

Question: With “STGLLMDLAANEKAVHADFFNDFEDLFDDDDIQ [Position A18, CSNAP residues 25-57]” as the substance, how does the “Average fold change, intensities” value (recombinant CSN complex) read?
Answer: 0.9600 fold of C-CSNAP (A1)

Question: What about the Average fold change (CSN^ΔCSNAP complex; [2]) of the same substance?
Answer: 1.3562 fold

Question: Which results are given for “VDLDEAGGSTGLLMDLAANEKAVHADFFNDFEDLFDDDDIQ [B 2, CSNAP residues 17-57]”?
Answer: Average fold change, intensities as fold of C-CSNAP (A1) (recombinant CSN complex): 0.7909 fold of C-CSNAP (A1); Average fold change (CSN^ΔCSNAP complex; [2]): 0.8221 fold

Question: How did the “Average fold change, intensities” value (recombinant CSN complex) turn out when “VHADFFNDFEDLFDDDDIQ [A 4, CSNAP residues 39-57]” was run?
Answer: 1.1190 fold of C-CSNAP (A1)

Question: And the Average fold change (CSN^ΔCSNAP complex; [2])?
Answer: 0.9552 fold

Question: How did the “Average fold change, intensities” value (recombinant CSN complex) turn out when “YVDLDEAGGSTGLLMDLAANEKAVHADFFNDFEDLFDDDDIQ [B 3, CSNAP residues 16-57]” was run?
Answer: 1.1108 fold of C-CSNAP (A1)

Question: And the Average fold change (CSN^ΔCSNAP complex; [2])?
Answer: 0.9215 fold
